Measured values as given in US20190062788A1, “LIPID NANOPARTICLE METHODS AND COMPOSITIONS FOR PRODUCING ENGINEERED ERYTHROID CELLS” (RUBIUS THERAPEUTICS, INC., priority 2017, published 2019).
No end group written: not given here. *: point of attachment. FITC = O=C1OC2(c3ccc(O)cc3Oc3cc(O)ccc32)c2ccc(NC(=S)*)cc21

What was measured:
[1] = system: erythroid cells; assay: Uptake of labelled transferrin receptor-binding peptide into erythroid cells, fluorescence microscopy; assay type: cell-based; conditions: added at day M2, about 1 mg/ml, 72 hours, 37 degrees
Protocol: Uptake of a transferrin-binding peptide was also tested. Wild-type CD34+ cells were differentiated as described herein. At day M2 of maturation/differentiation, FITC-LC-HAIYPRH (a fluorescently labelled peptide that binds the transferrin receptor) was added to a culture of about 0.5×10^6 cells at about 1 mg/ml. The labeled peptide was obtained from Anapsec. The cells were cultured in the presence of the labeled peptide for 72 hours at 37 degrees. Internalization of the FITC-LC-HAIYPRH labeled polypeptide by erythroid cells was confirmed by fluorescence microscopy.

[2] = system: erythroid cells undergoing maturation; assay: Uptake of Alexa488-labeled transferrin by erythroid cells during maturation; assay type: cell-based; conditions: 1 mg/ml in complete media, 0-24 hours, 37 or 4 degrees; days M1, M4, M5, M6
Protocol: In this example, transferrin receptor (CD71; also referred to herein as TRF) was evaluated for internalization into erythroid cells undergoing maturation. Briefly, wild-type CD34+ cells were differentiated as described herein. Samples of about 0.5×10^6 cells were taken on days M1, M4, M5, and M6 of maturation. […] The cells were incubated with the TRF-Alexa488 at a concentration of 1 mg/ml in complete media for 0-24 hours at 37 degrees or 4 degrees as indicated in FIG. 2.

Row | Substance | Internalization of labeled polypeptide by erythroid cells [1] | Transferrin internalization [2]
1 | FITC-LC-HAIYPRH: a fluorescently labelled peptide that binds the transferrin receptor, obtained from Anapsec ({FITC-LC}-HAIYPRH) | confirmed | 
2 | TFR-Alexa488: Alexa488-labeled transferrin obtained from Thermo Fisher Scientific (#T13342) |  | active throughout the maturation phase
